Assay results published in patent publication US10179782B2, “Substituted sulfonamide compounds” (Genentech, Inc., priority 2016, dated 2019).

What follows are molecules tested against T1, human TRPA1 (Homo sapiens, UniProt O75762) (assay: TRPA1 FLIPR Tetra calcium influx assay in CHO cells (block of cinnamaldehyde-induced calcium influx)). Conditions: Table 2; CHO cells expressing TRPA1; agonist cinnamaldehyde 75 uM; 20 min compound incubation; Hill coefficient fixed to 1.5; read-out: hTRPA1 CHO Ca2+ AUC EVO (IC50).
T1 construct: expressed in transfected cells; host or cells: CHO cells
T1 sequence (O75762 whole entry): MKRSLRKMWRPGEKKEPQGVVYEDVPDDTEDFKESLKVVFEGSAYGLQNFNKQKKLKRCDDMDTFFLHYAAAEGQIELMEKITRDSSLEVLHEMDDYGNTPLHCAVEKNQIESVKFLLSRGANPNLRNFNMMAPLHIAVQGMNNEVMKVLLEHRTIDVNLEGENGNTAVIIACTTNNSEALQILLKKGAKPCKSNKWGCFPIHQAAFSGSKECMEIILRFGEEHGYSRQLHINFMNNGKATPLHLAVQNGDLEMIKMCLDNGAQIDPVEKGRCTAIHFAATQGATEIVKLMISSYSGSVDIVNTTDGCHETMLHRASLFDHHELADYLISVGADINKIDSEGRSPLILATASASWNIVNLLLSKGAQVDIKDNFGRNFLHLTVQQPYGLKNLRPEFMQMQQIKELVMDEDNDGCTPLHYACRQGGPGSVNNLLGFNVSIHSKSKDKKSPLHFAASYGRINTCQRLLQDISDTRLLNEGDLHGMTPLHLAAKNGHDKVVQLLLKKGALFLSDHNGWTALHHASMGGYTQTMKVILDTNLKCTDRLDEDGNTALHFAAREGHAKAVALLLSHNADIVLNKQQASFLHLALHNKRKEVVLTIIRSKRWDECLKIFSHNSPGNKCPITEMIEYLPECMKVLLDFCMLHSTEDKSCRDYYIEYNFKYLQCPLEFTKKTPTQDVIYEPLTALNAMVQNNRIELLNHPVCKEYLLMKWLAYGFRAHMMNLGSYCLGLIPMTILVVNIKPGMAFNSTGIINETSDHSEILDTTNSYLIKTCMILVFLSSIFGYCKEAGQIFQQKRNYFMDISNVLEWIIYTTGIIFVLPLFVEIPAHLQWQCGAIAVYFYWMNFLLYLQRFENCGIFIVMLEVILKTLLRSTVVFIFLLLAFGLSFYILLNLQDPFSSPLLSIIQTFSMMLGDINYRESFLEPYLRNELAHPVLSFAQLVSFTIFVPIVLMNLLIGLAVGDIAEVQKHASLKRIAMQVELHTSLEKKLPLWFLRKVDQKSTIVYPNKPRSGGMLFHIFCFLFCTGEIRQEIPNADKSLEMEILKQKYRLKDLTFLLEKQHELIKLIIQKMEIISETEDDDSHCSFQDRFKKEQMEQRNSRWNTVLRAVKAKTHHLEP
Type: cell-based
How it was run: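 IC50s were derived from a Hill fit with n fixed at 1.5, using inhibition of FLIPR Tetra calcium signals in dye-loaded TRPA1-CHO cells. Cells sat with compound 20 min at room temperature in HBSS with 20 mM HEPES (pH 7.4) and 0.02% BSA, then were challenged with cinnamaldehyde near EC80: 75 µM human, 45 µM rat.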

Structure (SMILES) | IC50 [nM]
O=C(NCc1cc(N2CCC(OC(F)(F)F)CC2)ncc1F)[C@@H]1C[C@@H](F)CN1S(=O)(=O)c1ccc(F)cc1 [Example 57, (2S,4R)-4-fluoro-1-(4-fluorophenyl)sulfonyl-N-[[5-fluoro-2-[4-(trifluoromethoxy)-1-piperidyl]-4-pyridyl]methyl]pyrrolidine-2-carboxamide] | 49.4
C[C@H]1[C@H](F)C[C@@H](C(=O)NCc2cc(-c3cnc(C(F)(F)F)nc3)nc(N3CCC3)n2)N1S(=O)(=O)c1ccc(F)cc1 [Example 42, (2S,4R,5S)-N-((2-(azetidin-1-yl)-2′-(trifluoromethyl)-4,5′-bipyrimidin-6-yl)methyl)-4-fluoro-1-(4-fluorophenylsulfonyl)-5-methylpyrrolidine-2-carboxamide] | 21.9
CC1(C)[C@@H]2[C@@H](C(=O)NCc3ccc(F)c(-c4cnc(C(F)(F)F)nc4)c3)N(S(=O)(=O)c3ccc(F)cc3)C[C@@H]21 [Example 78, (1S,4S,5R)-3-(4-fluorophenyl)sulfonyl-N-[[4-fluoro-3-[2-(trifluoromethyl)pyrimidin-5-yl]phenyl]methyl]-6,6-dimethyl-3-azabicyclo[3.1.0]hexane-4-carboxamide] | 23.4
C[C@H]1[C@H](F)C[C@@H](C(=O)NCc2ccc(F)c(-c3cnc(C(F)(F)F)nc3)c2)N1S(=O)(=O)c1ccc(F)cc1 [Example 5, (2S,4R,5S)-4-fluoro-1-(4-fluorophenyl)sulfonyl-N-[[4-fluoro-3-[2-(trifluoromethyl)pyrimidin-5-yl]phenyl]methyl]-5-methyl-pyrrolidine-2-carboxamide] | 3.77
O=C(NCc1cc(-c2cnc(C(F)(F)F)nc2)ncn1)[C@@H]1CCC2(CC2)N1S(=O)(=O)c1ccc(F)cc1 [Example 4, (5S)-4-[(4-fluorobenzene)sulfonyl]-N-([6-[2-(trifluoromethyl)pyrimidin-5-yl]pyrimidin-4-yl]methyl)-4-azaspiro[2.4]heptane-5-carboxamide] | 71.2
O=C(NCc1cc(-c2cnc(C(F)(F)F)nc2)ncc1F)[C@@H]1CC[C@H](C(F)(F)F)N1S(=O)(=O)c1ccc(F)cc1 [Example 61, (2S,5R)-1-(4-fluorophenyl)sulfonyl-N-[[5-fluoro-2-[2-(trifluoromethyl)pyrimidin-5-yl]-4-pyridyl]methyl]-5-(trifluoromethyl)pyrrolidine-2-carboxamide] | 21.6
C[C@H]1[C@H](F)C[C@@H](C(=O)NCc2cc(-c3cnc(C(F)(F)F)nc3)c(F)cn2)N1S(=O)(=O)c1ccc(F)cc1 [Example 34, (2S,4R,5S)-4-fluoro-N-([5-fluoro-4-[2-(trifluoromethyl)pyrimidin-5-yl]pyridin-2-yl]methyl)-1-[(4-fluorobenzene)sulfonyl]-5-methylpyrrolidine-2-carboxamide] | 38.8
C[C@H]1[C@H](F)C[C@@H](C(=O)NCc2cc(-c3cnc(C(F)(F)F)nc3)ccc2C#N)N1S(=O)(=O)c1ccc(F)cc1 [Example 33, (2S,4R,5S)-N-([2-cyano-5-[2-(trifluoromethyl)pyrimidin-5-yl]phenyl]methyl)-4-fluoro-1-[(4-fluorobenzene)sulfonyl]-5-methylpyrrolidine-2-carboxamide] | 3.58
C[C@H]1[C@H](F)C[C@@H](C(=O)NCc2cc(-c3cnc(C(F)(F)F)nc3)ncc2F)N1S(=O)(=O)c1cc2ccccc2o1 [Example 95, (2S,4R,5S)-1-(benzofuran-2-ylsulfonyl)-4-fluoro-N-[[5-fluoro-2-[2-(trifluoromethyl)pyrimidin-5-yl]-4-pyridyl]methyl]-5-methyl-pyrrolidine-2-carboxamide] | 1.49
O=C(NCc1cc(-c2cnc(C(F)(F)F)nc2)ccc1F)[C@@H]1C[C@@H]2C[C@@H]2N1S(=O)(=O)c1ccc(F)cc1 [Example 16, (1S,3S,5S)-2-(4-fluorophenyl)sulfonyl-N-[[2-fluoro-5-[2-(trifluoromethyl)pyrimidin-5-yl]phenyl]methyl]-2-azabicyclo[3.1.0]hexane-3-carboxamide] | 2.12
C[C@H]1CC[C@@H](C(=O)NCc2cc(Cl)nc(-c3cnc(C(F)(F)F)nc3)c2)N1S(=O)(=O)c1ccc(F)cc1 [Example 3, (2S,5S)—N-([2-chloro-6-[2-(trifluoromethyl)pyrimidin-5-yl]pyridin-4-yl]methyl)-1-[(4-fluorobenzene)sulfonyl]-5-methylpyrrolidine-2-carboxamide] | 1.12
C[C@H]1[C@H](F)C[C@@H](C(=O)NCc2cc(OCc3cncc(C(F)(F)F)c3)c(F)cn2)N1S(=O)(=O)c1ccc(F)cc1 [Example 48, (2S,4R,5S)-4-fluoro-N-((5-fluoro-4-((5-(trifluoromethyl)pyridin-3-yl)methoxy)pyridin-2-yl)methyl)-1-(4-fluorophenylsulfonyl)-5-methylpyrrolidine-2-carboxamide] | 105
C[C@@]1(F)C[C@@H](C(=O)NCc2cc(Cl)nc(-c3cnc(C(F)(F)F)nc3)c2)N(S(=O)(=O)c2ccc(F)cc2)C1 [Example 75, (2S,4R)-N-[[2-chloro-6-[2-(trifluoromethyl)pyrimidin-5-yl]-4-pyridyl]methyl]-4-fluoro-1-(4-fluorophenyl)sulfonyl-4-methyl-pyrrolidine-2-carboxamide] | 66.6

Continued, values first:

IC50 [nM] | Structure (SMILES)
5.51 | C[C@H]1[C@H](F)C[C@@H](C(=O)NCc2cc(-c3cnc(C(F)(F)F)nc3)ncc2OCC(F)(F)F)N1S(=O)(=O)c1ccc(F)cc1 [Example 122, (2S,4R,5S)-4-fluoro-1-(4-fluorophenylsulfonyl)-5-methyl-N-((5-(2,2,2-trifluoroethoxy)-2-(2-(trifluoromethyl)pyrimidin-5-yl)pyridin-4-yl)methyl)pyrrolidine-2-carboxamide]
0.875 | C[C@H]1[C@H](F)C[C@@H](C(=O)NCc2cc(-c3cnc(C(F)(F)F)nc3)ncc2OC(F)(F)F)N1S(=O)(=O)c1ccc(F)cc1 [Example 105, (2S,4R,5S)-4-fluoro-1-(4-fluorophenyl)sulfonyl-5-methyl-N-[[5-(trifluoromethoxy)-2-[2-(trifluoromethyl)pyrimidin-5-yl]-4-pyridyl]methyl]pyrrolidine-2-carboxamide]
2.77 | C[C@H]1[C@H](F)C[C@@H](C(=O)NCc2cc(-c3ccc(C(F)(F)F)cc3)ncc2OC(F)(F)F)N1S(=O)(=O)c1ccc(F)cc1 [Example 139, (2S,4R,5S)-4-fluoro-1-(4-fluorophenyl)sulfonyl-5-methyl-N-[[5-(trifluoromethoxy)-2-[4-(trifluoromethyl)phenyl]-4-pyridyl]methyl]pyrrolidine-2-carboxamide]
1 | O=C(NCc1cc(-c2cnc(C(F)(F)F)nc2)nc(C2CC2)n1)[C@@H]1[C@H]2C[C@H]2CN1S(=O)(=O)c1ccc(F)cc1 [Example 151, (1S,2S,5R)-N-[[2-cyclopropyl-6-[2-(trifluoromethyl)pyrimidin-5-yl]pyrimidin-4-yl]-methyl]-3-(4-fluorophenyl)sulfonyl-3-azabicyclo[3.1.0]hexane-2-carboxamide]
0.836 | C[C@H]1[C@H](F)C[C@@H](C(=O)NCc2cc(-c3cnc(C(F)(F)F)nc3)ncc2C(F)(F)F)N1S(=O)(=O)c1ccc(F)c(F)c1 [Example 119, (2S,4R,5S)-1-(3,4-difluorophenyl)sulfonyl-4-fluoro-5-methyl-N-[[5-(trifluoromethyl)-2-[2-(trifluoromethyl)pyrimidin-5-yl]-4-pyridyl]methyl]pyrrolidine-2-carboxamide]
1.52 | C[C@H]1[C@H](F)C[C@@H](C(=O)NCc2cc(C(F)(F)F)nc(C3CC3)n2)N1S(=O)(=O)c1cc2cc(F)ccc2o1 [Example 120, (2S,4R,5S)-N-[[2-cyclopropyl-6-(trifluoromethyl)pyrimidin-4-yl]methyl]-4-fluoro-1-(5-fluorobenzofuran-2-yl)sulfonyl-5-methyl-pyrrolidine-2-carboxamide]
18.2 | C[C@H]1[C@H](F)C[C@@H](C(=O)NCc2cc(-c3cc(C(F)(F)F)nn3C)ncc2F)N1S(=O)(=O)c1ccc(F)cc1 [Example 128, (2S,4R,5S)-4-fluoro-N-[[5-fluoro-2-[2-methyl-5-(trifluoromethyl)pyrazol-3-yl]-4-pyridyl]methyl]-1-(4-fluorophenyl)sulfonyl-5-methyl-pyrrolidine-2-carboxamide]
19.3 | C[C@H]1[C@H](F)C[C@@H](C(=O)NCc2nc(-c3cnc(C(F)(F)F)nc3)ncc2C(F)(F)F)N1S(=O)(=O)c1ccc(F)cc1 [Example 135, (2S,4R,5S)-4-fluoro-1-(4-fluorophenyl)sulfonyl-5-methyl-N-[[5-(trifluoromethyl)-2-[2-(trifluoromethyl)pyrimidin-5-yl]pyrimidin-4-yl]methyl]pyrrolidine-2-carboxamide]
9.74 | C[C@H]1[C@H](F)C[C@@H](C(=O)NCc2cc(-c3cnc(C(F)(F)F)nc3)c(C(F)(F)F)cn2)N1S(=O)(=O)c1ccc(F)cc1 [Example 107, (2S,4R,5S)-4-fluoro-1-(4-fluorophenyl)sulfonyl-5-methyl-N-[[5-(trifluoromethyl)-4-[2-(trifluoromethyl)pyrimidin-5-yl]-2-pyridyl]methyl]pyrrolidine-2-carboxamide]
8.11 | C[C@H]1[C@H](F)C[C@@H](C(=O)NCc2cc(-c3cnc(C(F)(F)F)nc3)ncc2CC(F)(F)F)N1S(=O)(=O)c1ccc(F)cc1 [Example 136, (2S,4R,5S)-4-fluoro-1-(4-fluorophenyl)sulfonyl-5-methyl-N-[[5-(2,2,2-trifluoroethyl)-2-[2-(trifluoromethyl)pyrimidin-5-yl]-4-pyridyl]methyl]pyrrolidine-2-carboxamide]
20.4 | C[C@H]1[C@H](F)C[C@@H](C(=O)NCc2cc(-c3cnc(C4CC4)nc3)ncc2F)N1S(=O)(=O)c1ccc(F)cc1 [Example 141, (2S,4R,5S)-N-[[2-(2-cyclopropylpyrimidin-5-yl)-5-fluoro-4-pyridyl]methyl]-4-fluoro-1-(4-fluorophenyl)sulfonyl-5-methyl-pyrrolidine-2-carboxamide]
